From US20080227820A1, “CYCLIC PHENYL-SUBSTITUTED INDAZOLS, A PROCESS FOR THEIR PRODUCTION AND THEIR USE AS ANTI-INFLAMMATORY AGENTS” (priority 2006, published 2008) come the findings set out here.

A word on the IC50: it is the midpoint of a concentration-inhibition curve.

Assay [1] has as its target T1, progesterone receptor (PR) (Homo sapiens, UniProt P06401).
T1 sequence (P06401 1-933): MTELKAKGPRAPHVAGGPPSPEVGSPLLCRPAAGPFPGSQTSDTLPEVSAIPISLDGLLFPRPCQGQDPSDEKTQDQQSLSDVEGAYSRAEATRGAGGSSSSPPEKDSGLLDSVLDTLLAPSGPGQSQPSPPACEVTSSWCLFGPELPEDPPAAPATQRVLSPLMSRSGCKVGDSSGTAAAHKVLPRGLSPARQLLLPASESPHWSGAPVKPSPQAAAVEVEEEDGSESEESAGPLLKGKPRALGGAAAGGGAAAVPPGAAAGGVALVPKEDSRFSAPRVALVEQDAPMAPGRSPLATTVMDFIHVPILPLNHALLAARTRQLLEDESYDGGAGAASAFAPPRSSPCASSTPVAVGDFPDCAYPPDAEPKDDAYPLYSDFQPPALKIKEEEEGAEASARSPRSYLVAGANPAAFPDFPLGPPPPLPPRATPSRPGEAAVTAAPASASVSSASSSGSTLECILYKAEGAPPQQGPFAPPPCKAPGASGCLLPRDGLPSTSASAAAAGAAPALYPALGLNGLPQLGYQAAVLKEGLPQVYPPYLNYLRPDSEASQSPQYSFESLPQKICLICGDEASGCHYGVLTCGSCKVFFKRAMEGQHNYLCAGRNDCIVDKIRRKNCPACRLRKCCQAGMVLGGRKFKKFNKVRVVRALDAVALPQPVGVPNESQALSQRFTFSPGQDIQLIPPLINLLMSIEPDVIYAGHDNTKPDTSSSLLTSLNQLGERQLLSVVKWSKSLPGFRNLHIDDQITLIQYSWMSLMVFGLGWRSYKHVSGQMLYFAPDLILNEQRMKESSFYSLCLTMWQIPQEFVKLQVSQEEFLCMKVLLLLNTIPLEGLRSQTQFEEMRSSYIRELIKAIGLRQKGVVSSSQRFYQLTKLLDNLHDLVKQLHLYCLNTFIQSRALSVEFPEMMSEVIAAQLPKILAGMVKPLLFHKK
The assay is described as follows: Binding to recombinant progesterone receptor. The following applies: recombinantly produced receptor. The text has this:
(§1) The binding of the substances to the glucocorticoid receptor (GR) and other steroid hormone receptors (mineral corticoid receptor (MR), progesterone receptor (PR) and androgen receptor (AR)) is examined with the aid of recombinantly produced receptors. Cytosol preparations of Sf9 cells, which had been infected with recombinant baculoviruses, which code for the GR, are used for the binding studies. In comparison to reference substance [^3H]-dexamethasone, the substances show a high to very high affinity to GR.

Assay [2] has as its target T2, mineral corticoid receptor (MR) (Homo sapiens, UniProt P08235).
T2 sequence (P08235 1-984): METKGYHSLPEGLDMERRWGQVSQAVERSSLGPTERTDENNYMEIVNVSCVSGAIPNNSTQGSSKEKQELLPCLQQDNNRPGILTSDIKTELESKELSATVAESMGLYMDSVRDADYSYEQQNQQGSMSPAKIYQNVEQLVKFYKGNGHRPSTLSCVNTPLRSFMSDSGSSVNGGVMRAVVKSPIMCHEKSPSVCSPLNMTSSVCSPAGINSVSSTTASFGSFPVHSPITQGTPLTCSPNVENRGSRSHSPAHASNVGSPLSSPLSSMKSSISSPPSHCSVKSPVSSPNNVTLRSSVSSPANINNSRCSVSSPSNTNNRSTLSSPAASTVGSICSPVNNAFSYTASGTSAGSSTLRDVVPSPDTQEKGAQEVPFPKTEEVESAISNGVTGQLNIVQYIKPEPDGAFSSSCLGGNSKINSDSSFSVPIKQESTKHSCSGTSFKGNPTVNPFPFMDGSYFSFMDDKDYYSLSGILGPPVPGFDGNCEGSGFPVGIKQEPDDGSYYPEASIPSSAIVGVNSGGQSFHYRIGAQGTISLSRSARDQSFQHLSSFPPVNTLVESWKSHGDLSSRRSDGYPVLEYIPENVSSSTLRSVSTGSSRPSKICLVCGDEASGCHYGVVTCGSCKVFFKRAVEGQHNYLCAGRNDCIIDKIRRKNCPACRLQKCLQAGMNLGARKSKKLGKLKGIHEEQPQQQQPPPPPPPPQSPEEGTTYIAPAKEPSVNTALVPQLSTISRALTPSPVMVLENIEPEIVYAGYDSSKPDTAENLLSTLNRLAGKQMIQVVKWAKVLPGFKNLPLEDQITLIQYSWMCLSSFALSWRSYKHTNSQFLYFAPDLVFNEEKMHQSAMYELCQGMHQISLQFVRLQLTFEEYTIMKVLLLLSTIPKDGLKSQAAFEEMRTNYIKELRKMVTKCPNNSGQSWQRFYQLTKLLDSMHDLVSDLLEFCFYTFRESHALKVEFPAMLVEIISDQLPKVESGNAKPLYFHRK
The assay is described as follows: Binding to recombinant mineral corticoid receptor. The settings on record: recombinantly produced receptor.
Excerpt: as §1

Assay [3] deals with human monocyte cell line THP-1. Description: Inhibition of LPS-triggered IL-8 secretion in THP-1 cells (ELISA). The assay is classed as cell-based. The procedure: The concentration of the cytokines was determined in the supernatant by means of commercially available ELISA kits.
On the technique in general: In an ELISA, binding on a coated surface is turned into a signal by an enzyme label.

The target of the next assay is T3, androgen receptor (AR) (Homo sapiens, UniProt P10275).
T3 sequence (P10275 1-920): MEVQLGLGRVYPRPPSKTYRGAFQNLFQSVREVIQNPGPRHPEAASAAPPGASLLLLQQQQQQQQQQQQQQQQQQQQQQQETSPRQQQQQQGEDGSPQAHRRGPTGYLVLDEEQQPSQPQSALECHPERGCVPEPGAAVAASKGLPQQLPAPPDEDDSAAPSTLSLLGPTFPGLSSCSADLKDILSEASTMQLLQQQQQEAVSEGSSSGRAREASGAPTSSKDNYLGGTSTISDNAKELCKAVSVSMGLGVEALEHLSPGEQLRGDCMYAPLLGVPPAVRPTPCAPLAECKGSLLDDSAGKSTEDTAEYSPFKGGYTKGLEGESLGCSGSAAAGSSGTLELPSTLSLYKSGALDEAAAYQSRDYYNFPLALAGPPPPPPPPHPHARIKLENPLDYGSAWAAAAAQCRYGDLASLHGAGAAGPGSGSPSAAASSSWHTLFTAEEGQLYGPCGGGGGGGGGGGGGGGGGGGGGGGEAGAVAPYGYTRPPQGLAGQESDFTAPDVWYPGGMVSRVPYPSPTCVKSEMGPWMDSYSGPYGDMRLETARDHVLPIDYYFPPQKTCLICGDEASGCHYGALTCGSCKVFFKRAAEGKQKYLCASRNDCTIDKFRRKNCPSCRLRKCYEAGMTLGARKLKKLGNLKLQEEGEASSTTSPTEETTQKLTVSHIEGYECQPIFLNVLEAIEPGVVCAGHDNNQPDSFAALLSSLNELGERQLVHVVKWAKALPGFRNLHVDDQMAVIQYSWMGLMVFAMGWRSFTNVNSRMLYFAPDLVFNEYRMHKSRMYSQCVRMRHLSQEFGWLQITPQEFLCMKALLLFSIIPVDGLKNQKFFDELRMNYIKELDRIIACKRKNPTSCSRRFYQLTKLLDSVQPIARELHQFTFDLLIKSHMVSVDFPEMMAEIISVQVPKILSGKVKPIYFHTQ
The assay is described as follows: Binding to recombinant androgen receptor. The settings on record: recombinantly produced receptor.
Excerpt: as §1

Another assay has as its target ER. Description: Steroid receptor binding, ER.
Assay [4] addresses T4, glucocorticoid receptor (GR) (Homo sapiens, UniProt P04150).
T4 construct: made in house; host or cells: Sf9 cells infected with recombinant baculovirus (cytosol preparation)
T4 sequence (P04150 1-777): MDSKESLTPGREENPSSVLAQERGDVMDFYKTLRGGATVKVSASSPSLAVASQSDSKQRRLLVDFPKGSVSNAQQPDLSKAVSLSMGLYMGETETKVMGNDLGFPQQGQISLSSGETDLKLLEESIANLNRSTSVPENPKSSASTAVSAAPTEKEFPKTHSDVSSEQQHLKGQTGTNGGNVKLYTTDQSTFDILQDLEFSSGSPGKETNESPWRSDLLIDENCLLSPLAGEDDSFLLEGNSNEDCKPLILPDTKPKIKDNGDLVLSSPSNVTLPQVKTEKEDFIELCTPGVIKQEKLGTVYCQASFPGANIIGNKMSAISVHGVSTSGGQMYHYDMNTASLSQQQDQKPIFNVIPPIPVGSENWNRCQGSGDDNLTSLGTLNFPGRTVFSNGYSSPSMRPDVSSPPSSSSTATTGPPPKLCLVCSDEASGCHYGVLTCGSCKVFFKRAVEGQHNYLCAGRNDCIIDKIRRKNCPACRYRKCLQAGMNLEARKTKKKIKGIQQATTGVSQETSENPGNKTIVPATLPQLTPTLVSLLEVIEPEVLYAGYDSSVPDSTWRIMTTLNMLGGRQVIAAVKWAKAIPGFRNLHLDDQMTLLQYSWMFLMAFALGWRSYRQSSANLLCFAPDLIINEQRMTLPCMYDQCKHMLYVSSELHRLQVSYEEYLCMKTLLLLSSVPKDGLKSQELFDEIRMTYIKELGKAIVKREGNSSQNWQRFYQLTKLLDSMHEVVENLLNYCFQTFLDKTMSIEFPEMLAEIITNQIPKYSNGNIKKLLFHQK
Description: Binding to recombinant glucocorticoid receptor, Sf9 cytosol, vs [3H]-dexamethasone. The settings on record: [3H]-dexamethasone reference.
Excerpt: as §1

Molecules are shown by their SMILES.

Turning to `CC[C@@H]1C[C@](O)(C(F)(F)F)[C@@H](Nc2cccc3c2cnn3-c2ccc(F)cc2)c2ccc(F)c(O)c21` [Example 4], the concentration for half-maximal inhibition (IC50) in assay [1] was > 1000 nM; in assay [2] it was > 1000 nM; in assay [3] (Homo sapiens, THP-1, supernatant ELISA, read-out: IC50(IL8)) it was 2.4 nM; at androgen receptor (AR) it was > 1000 nM; on ER it was > 1000 nM; in assay [4], 16.5 nM. For the same molecule, the “eff. relative to dexamethasone (IL-8 inhibition)” value in assay [3] (THP-1, relative to dexamethasone) stood at 91%.
